US10947242B2, “[1,2,4]triazolo[1,5and#8208;A]pyrimidine compounds as PDE2 inhibitors” (Janssen Pharmaceutica NV, priority 2016, dated 2021)
Where two headings read alike, the source gives them in different places.

Legend:
Type in all cases: biochemical
[1] = target: T1, Human recombinant PDE3A (hPDE3A) (Homo sapiens, UniProt Q14432); assay: In vitro assay PDE3A (SPA, 3H-cAMP hydrolysis); conditions: for IC50: hPDE3B pIC50; for Emax: read-out: hPDE3B Emax, read-out: Emax;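 for Emax: the method names PDE3A and the table heading PDE3B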
T1 construct: purchased Scottish Biomedical; host or cells: Sf9 insect cells
T1 sequence (Q14432 whole entry): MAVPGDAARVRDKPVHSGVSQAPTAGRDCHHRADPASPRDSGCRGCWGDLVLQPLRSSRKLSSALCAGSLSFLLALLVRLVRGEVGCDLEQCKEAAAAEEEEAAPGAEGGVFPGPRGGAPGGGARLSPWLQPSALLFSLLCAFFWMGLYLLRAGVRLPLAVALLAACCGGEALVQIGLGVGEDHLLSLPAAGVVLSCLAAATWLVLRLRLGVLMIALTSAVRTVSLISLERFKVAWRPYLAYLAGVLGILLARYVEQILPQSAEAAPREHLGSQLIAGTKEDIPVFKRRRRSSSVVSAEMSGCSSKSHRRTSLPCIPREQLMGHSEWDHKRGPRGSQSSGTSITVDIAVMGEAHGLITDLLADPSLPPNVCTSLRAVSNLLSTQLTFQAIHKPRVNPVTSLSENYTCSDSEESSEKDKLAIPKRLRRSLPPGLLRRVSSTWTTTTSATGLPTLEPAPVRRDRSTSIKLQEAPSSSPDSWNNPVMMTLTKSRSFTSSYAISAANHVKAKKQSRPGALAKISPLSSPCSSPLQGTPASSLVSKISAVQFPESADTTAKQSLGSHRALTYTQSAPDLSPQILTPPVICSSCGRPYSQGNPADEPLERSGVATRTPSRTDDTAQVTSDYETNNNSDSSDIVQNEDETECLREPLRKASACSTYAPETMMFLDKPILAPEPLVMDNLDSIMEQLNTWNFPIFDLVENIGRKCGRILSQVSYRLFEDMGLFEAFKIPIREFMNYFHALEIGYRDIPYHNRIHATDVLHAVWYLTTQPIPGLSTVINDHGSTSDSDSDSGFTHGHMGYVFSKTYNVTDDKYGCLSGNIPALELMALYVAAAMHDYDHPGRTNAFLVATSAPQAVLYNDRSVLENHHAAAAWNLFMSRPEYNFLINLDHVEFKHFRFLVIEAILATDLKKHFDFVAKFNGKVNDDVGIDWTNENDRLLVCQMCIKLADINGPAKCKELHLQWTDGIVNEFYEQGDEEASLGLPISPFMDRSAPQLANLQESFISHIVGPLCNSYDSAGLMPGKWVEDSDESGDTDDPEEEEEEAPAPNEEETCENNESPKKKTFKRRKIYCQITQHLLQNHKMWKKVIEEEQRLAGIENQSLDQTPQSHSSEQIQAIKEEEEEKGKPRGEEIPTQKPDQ
Method in brief: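 Radiometric SPA measuring [3H]-cAMP hydrolysis (0.4 μM cAMP, 2.4 μCi/ml) over 60 min at room temperature, in Tris pH 7.8 buffer with MgCl2 and EGTA, 1% DMSO. Enzyme: recombinant human brain PDE3A expressed in Sf9 cells, used as partially purified lysate. Counts compared with enzyme-free blanks and vehicle controls.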

[2] = target: T2, Human recombinant PDE2A (hPDE2A) (Homo sapiens, UniProt O00408); assay: In vitro assay PDE2A (SPA, 3H-cGMP hydrolysis); conditions: for Emax: read-out: hPDE2A Emax
T2 construct: His tag (inferred from metal chelate purification); made in house; host or cells: Sf9 insect cells (baculovirus)
T2 sequence (O00408 whole entry): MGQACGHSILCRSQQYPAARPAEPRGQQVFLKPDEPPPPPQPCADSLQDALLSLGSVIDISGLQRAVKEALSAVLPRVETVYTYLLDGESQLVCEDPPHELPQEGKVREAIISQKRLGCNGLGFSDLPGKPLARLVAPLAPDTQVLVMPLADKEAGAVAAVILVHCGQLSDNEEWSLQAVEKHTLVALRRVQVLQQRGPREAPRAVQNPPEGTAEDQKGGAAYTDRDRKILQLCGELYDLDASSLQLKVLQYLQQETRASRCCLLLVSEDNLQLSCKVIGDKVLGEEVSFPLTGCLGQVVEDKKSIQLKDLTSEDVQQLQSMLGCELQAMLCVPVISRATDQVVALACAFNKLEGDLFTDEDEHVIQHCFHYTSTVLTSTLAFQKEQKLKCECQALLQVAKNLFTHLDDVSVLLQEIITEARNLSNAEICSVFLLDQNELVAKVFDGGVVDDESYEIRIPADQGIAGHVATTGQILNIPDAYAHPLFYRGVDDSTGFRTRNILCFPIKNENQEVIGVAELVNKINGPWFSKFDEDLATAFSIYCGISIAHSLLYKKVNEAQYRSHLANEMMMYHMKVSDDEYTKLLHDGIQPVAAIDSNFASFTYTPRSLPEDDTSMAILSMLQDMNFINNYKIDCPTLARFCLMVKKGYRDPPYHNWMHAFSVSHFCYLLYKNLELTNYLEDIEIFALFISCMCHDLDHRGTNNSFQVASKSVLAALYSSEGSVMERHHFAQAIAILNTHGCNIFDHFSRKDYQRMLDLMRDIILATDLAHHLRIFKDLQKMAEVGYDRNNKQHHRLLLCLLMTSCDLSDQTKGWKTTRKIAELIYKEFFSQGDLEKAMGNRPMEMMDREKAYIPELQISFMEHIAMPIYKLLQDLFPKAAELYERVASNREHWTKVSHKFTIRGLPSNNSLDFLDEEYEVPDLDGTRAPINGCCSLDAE

[3] = target: T3, Human recombinant PDE10A (hPDE10A) (Homo sapiens, UniProt Q9Y233); assay: In vitro assay PDE10A, human clone (SPA, 3H-cAMP hydrolysis)
T3 construct: His tag (inferred from metal chelate purification); made in house; host or cells: Sf9 insect cells (baculovirus)
T3 sequence (Q9Y233 267-1055): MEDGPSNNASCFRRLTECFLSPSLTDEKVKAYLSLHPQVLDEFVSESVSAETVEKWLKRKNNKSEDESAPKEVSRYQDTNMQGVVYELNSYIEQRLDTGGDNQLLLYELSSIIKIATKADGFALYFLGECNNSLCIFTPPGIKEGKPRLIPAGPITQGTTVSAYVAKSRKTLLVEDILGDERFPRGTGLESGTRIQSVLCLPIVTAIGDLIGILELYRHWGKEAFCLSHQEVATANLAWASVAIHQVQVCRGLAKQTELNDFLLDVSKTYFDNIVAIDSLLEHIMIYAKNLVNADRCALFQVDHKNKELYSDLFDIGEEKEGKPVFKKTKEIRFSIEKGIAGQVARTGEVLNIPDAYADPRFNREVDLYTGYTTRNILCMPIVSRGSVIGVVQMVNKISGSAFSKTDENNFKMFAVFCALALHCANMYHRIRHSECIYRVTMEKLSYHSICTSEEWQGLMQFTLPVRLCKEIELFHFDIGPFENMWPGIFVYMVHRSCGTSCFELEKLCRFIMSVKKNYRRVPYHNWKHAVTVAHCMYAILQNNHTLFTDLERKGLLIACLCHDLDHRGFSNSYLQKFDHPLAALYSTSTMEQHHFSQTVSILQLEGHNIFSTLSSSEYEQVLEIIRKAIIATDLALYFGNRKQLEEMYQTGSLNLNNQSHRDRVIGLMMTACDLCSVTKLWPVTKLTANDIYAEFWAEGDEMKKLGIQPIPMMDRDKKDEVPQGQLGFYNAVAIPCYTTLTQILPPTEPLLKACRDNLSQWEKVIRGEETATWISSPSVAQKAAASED
Method in brief: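 Hydrolysis of 3H-cAMP (60 nM cAMP, 0.008 μCi tracer) proceeded for 60 min at room temperature, with the product detected by SPA bead scintillation counting. The enzyme was hPDE10A from baculovirus-infected Sf9 cells in Tris pH 7.8 buffer with MgCl2 and EGTA, and compounds were at 1% DMSO final. Blanks lacked enzyme.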

[4] = read-out: hPDE2A pIC50 (converted)
[5] = human clone (h), default, read-out: hPDE10A2 Emax
[6] = human clone (h), default, read-out: hPDE10A2 pIC50 (converted)
[7] = human clone by default (no (r) mark), read-out: hPDE10A2 or rPDE10A2 Emax
[8] = human clone by default (no (r) mark), read-out: hPDE10A2 or rPDE10A2 pIC50 (converted)
[9] = human recombinant PDE2A, 10 μM cGMP substrate, read-out: hPDE2A pIC50 (converted)

SMILES | IC50 ([1]; read-out: pIC50 (converted)) | Emax [1] | Emax [2] | IC50 [2, 4] | Emax [3, 5] | IC50 [3, 6] | Emax [3, 7] | IC50 [3, 8] | IC50 ([2]; hPDE2A pIC50) | IC50 ([2]; hPDE2A pIC50, human recombinant PDE2A, 10 μM cGMP substrate) | IC50 [2, 9] | Emax ([2]; human recombinant PDE2A) | IC50 [1] | IC50 ([3]; hPDE10A2 or rPDE10A2 pIC50, human clone by default (no (r) mark))
C[C@@H]1CCN(C(=O)c2cccnc2F)C[C@H]1c1cc(C(F)F)nc2ncnn12 [Compound 262] | > 10000 nM | 37% | 101% | 155 nM | 74% | 3240 nM | 74% | 3240 nM | – | – | – | – | – | –
Cc1cc([C@H]2CN(C(=O)c3cc(C)c(Cl)c(C)c3)CC[C@@H]2C)n2ncnc2n1 [Compound 218] | > 10000 nM | 51% | 100% | – | 85% | 2240 nM | 85% | 2240 nM | 204 nM | 204 nM | – | – | – | –
C[C@@H]1CCN(C(=O)c2ccno2)C[C@H]1c1cc(C(F)F)nc2ncnn12 [Compound 243] | > 10000 nM | 13% | 99% | 132 nM | 70% | 3630 nM | 70% | 3630 nM | – | – | 132 nM | 99% | – | –
Cc1cc([C@@H]2CN(C(=O)c3ccnc(Cl)c3F)CC[C@H]2C)n2ncnc2n1 [Compound 11] | 4790 nM | 69% | 100% | 22.9 nM | 95% | 372 nM | – | – | – | – | 22.9 nM | 100% | – | –
C[C@@H]1CCN(C(=O)c2cc(C(C)(C)C)nc(C(C)(C)C)c2)C[C@H]1c1cc(C(F)F)nc2ncnn12 [Compound 266] | 5370 nM | 74% | 100% | 417 nM | 89% | 2630 nM | 89% | 2630 nM | – | – | – | – | – | –
COc1ccc2nc(C(=O)N3CC[C@@H](C)[C@H](c4cc(C(F)F)nc5ncnn45)C3)sc2c1 [Compound 171] | 1150 nM | 93% | 99% | 11.7 nM | 97% | 355 nM | – | – | – | – | 11.7 nM | 99% | – | –
COc1c(C(=O)N2CC[C@@H](C)[C@H](c3cc(C(F)F)nc4ncnn34)C2)cccc1C(F)(F)F [Compound 247] | 2040 nM | 85% | 98% | 155 nM | 77% | 2880 nM | 77% | 2880 nM | – | – | – | – | – | –
C[C@@H]1CCN(C(=O)c2csc(N)n2)C[C@H]1c1cc(C(F)F)nc2ncnn12 [Compound 158] | > 10000 nM | 19% | 100% | 64.6 nM | 78% | 2140 nM | – | – | – | – | 64.6 nM | 100% | – | –
Cc1cc(C(=O)N2[C@H]3CC[C@H](c4cc(C(F)F)nc5ncnn45)[C@@H]2CC3)c(F)c(C)n1 [Compound 400] | – | 16% | 99% | – | – | – | 41% | – | 22.4 nM | – | – | – | > 10000 nM | > 10000 nM
Cn1ccc2cc(C(=O)N3[C@H]4CC[C@H](c5cc(C(F)F)nc6ncnn56)[C@@H]3CC4)cc(F)c21 [Compound 374] | 741 nM | 97% | 100% | 0.741 nM | – | – | 98% | 182 nM | – | – | – | – | – | –
Cc1nc(C(=O)N2CC[C@@H](C)[C@H](c3cc(C(F)F)nc4ncnn34)C2)c(C)o1 [Compound 252] | > 10000 nM | 17% | 96% | 708 nM | 66% | 6760 nM | 66% | 6760 nM | – | – | – | – | – | –
C[C@@H]1CCN(C(=O)c2cnccn2)C[C@H]1c1cc(C(F)F)nc2ncnn12 [Compound 257] | > 10000 nM | 15% | 95% | 263 nM | 45% | > 10000 nM | 45% | > 10000 nM | – | – | – | – | – | –
O=C(c1ccc(Cl)s1)N1[C@H]2CC[C@H](c3cc(C(F)F)nc4ncnn34)[C@@H]1CC2 [Compound 351] | 6310 nM | 69% | 99% | 51.3 nM | – | – | 83% | 2140 nM | – | – | – | – | – | –
C[C@@H]1CCN(C(=O)c2cnc(O)c(Cl)c2)C[C@H]1c1cc(C(F)F)nc2ncnn12 [Compound 173] | > 10000 nM | 31% | 101% | 13.8 nM | 96% | 302 nM | – | – | – | – | 13.8 nM | 101% | – | –
C[C@@H]1CCN(C(=O)c2cnc3n2CCCC3)C[C@H]1c1cc(C(F)F)nc2ncnn12 [Compound 179] | > 10000 nM | 32% | 100% | 21.4 nM | 90% | 537 nM | – | – | – | – | 21.4 nM | 100% | – | –
Cc1cc2cc(C(=O)N3[C@H]4CC[C@H](c5cc(C(F)F)nc6ncnn56)[C@@H]3CC4)ccc2n1C [Compound 373] | 537 nM | 97% | 100% | 2.69 nM | – | – | 99% | 316 nM | – | – | – | – | – | –
O=C(c1ccc2occc2c1)N1CCC[C@](F)(c2cc(C(F)F)nc3ncnn23)C1 (single isomer, unassigned) [Compound 138] | 4900 nM | 64% | 93% | 28.2 nM | 24% | > 10000 nM | – | – | – | – | – | – | – | –
C[C@@H]1CCN(C(=O)c2cc3ccccc3n2C)C[C@H]1c1cc(C(F)F)nc2ncnn12 [Compound 114] | 89.1 nM | 98% | 100% | 1.05 nM | 101% | 45.7 nM | – | – | – | – | 1.05 nM | 100% | – | –
C[C@@H]1CCN(C(=O)c2ccncn2)C[C@H]1c1cc(C(F)F)nc2ncnn12 [Compound 256] | > 10000 nM | 12% | 97% | 324 nM | 48% | – | 48% | – | – | – | – | – | – | –
C[C@@H]1CCN(C(=O)c2cccc3ocnc23)C[C@H]1c1cc(C(F)F)nc2ncnn12 [Compound 183] | > 10000 nM | 36% | 99% | 26.3 nM | 79% | 2290 nM | – | – | – | – | 26.3 nM | 99% | – | –
O=C(c1ccc(F)c(C(F)(F)F)c1)N1[C@H]2CC[C@H](c3cc(C(F)F)nc4ncnn34)[C@@H]1CC2 [Compound 357] | > 10000 nM | 34% | 98% | 77.6 nM | – | – | 73% | 3390 nM | – | – | – | – | – | –
Cc1cc(C(=O)N2CC[C@@H](C)[C@H](c3cc(C(F)F)nc4ncnn34)C2)on1 [Compound 152] | > 10000 nM | 30% | 99% | 41.7 nM | 80% | 2040 nM | – | – | – | – | 41.7 nM | 99% | – | –
C[C@@H]1CCN(C(=O)c2ccnc(Cl)c2F)C[C@H]1c1cc(C(F)F)nc2ncnn12 [Compound 55] | > 10000 nM | 41% | 101% | 12.6 nM | 83% | 1780 nM | – | – | – | – | 12.6 nM | 101% | – | –
Cc1cc([C@@H]2CC[C@@H]3CC[C@H]2N3C(=O)c2ccc3ncsc3c2)n2ncnc2n1 [Compound 230] | > 10000 nM | 40% | 93% | 1020 nM | 65% | 5370 nM | 65% | 5370 nM | – | – | 1020 nM | 93% | – | –
C[C@@H]1CCN(C(=O)c2ccc(F)nc2)C[C@H]1c1cc(C(F)F)nc2ncnn12 [Compound 254] | > 10000 nM | 25% | 99% | 107 nM | 70% | 3800 nM | 70% | 3800 nM | – | – | – | – | – | –
COCc1cc(C(=O)N2CC[C@@H](C)[C@H](c3cc(C(F)F)nc4ncnn34)C2)cc(C)n1 [Compound 288] | > 10000 nM | 44% | 101% | 2.69 nM | – | – | 93% | 417 nM | – | – | – | – | – | –
Cc1cnc(C(=O)N2CC[C@@H](C)[C@H](c3cc(C(F)F)nc4ncnn34)C2)cn1 [Compound 232] | > 10000 nM | 31% | 99% | 214 nM | 48% | > 10000 nM | 48% | > 10000 nM | – | – | 214 nM | 99% | – | –
O=C(c1ccc(OC(F)(F)F)c(F)c1)N1[C@H]2CC[C@H](c3cc(C(F)F)nc4ncnn34)[C@@H]1CC2 [Compound 342] | 4470 nM | 69% | 100% | 32.4 nM | – | – | 77% | 2690 nM | – | – | – | – | – | –
